Measurements: patent EP2488183B1, “Composition for inhibiting TGF-beta comprising imidazopurine derivatives” (Korea Institute of Radiological & Medical Sciences, priority 2009, dated 2011)

Assays:
RAW 264.7 cell = assay: RT-PCR of pro-inflammatory cytokine and iNOS mRNA in macrophages stimulated by LPS; format: cell-based, mouse; conditions: RAW 264.7, compound 2 h before 1 µg/ml LPS, 6 h; FIG. 8
Procedure: A macrophage is a front-line immune cell that is responsible for an initial immune response to various antigens and causes a strong inflammation reaction. RAW 264.7 cell, a mouse macrophage strain, was purchased from American Type Culture Collection (ATCC, U.S.A.), and incubated under 5% CO2 and at a temperature of 37°C in a Dulbecco's modified Eagle's medium (DMEM) supplemented with 10% FBS serum, 100 units/ml of penicillin, and 100 µg/ml of streptomycin. […] of compound I or II was added to the incubated cells and then, two hours later, the cells were treated with 1 µg/ml lipopolysaccharide (LPS), which is a cell wall component of a gram negative bacteria and incubated further for 6 hours. Then, the cells were collected and the total RNA thereof was isolated using TRIzol and quantified. Out of the total RNA, 1 µg of RNA was used to synthesize cDNA using a reverse transcriptase. Then, a polymerase chain reaction (PCR) was performed using the cDNA as a template to identify expression levels of cytokines. In detail, PCR was performed in the presence of a DNA polymerase using the cDNA as a template to amplify IL-1β, IL-6, and TNF-α which are pro-inflammatory cytokines, iNOS, nitric oxide synthase, and β-actin used as a control group with a cycle consisting of 30 seconds at a temperature of 94°C, 45 seconds at a temperature of 55°C, and 45 seconds at a temperature of 72°C repeated 30 times. Primers set forth in SEQ ID. NOs: 1 through 10 shown in Table 1 were used to amplify IL-1β, IL-6, TNF-α, iNOS and β-actin, respectively. Table 1 [Table 1]
The amplification product of PCR was subjected to electrophoresis on 1% agarose gel in which ethidium bromide (dye) was present so as to measure mRNA expression levels of the cytokines. FIGS. 8a and 8b show changes in the amounts of the pro-inflammatory cytokines caused by compounds I and II, respectively.

HEK 293 cells = assay: Cytotoxicity test, CCK-8 assay; format: cell-based, human; conditions: CCK-8, absorbance 450 nm, FIGS. 4a, 4b
Procedure: In order to confirm that the luciferase activity is inhibited due to TGF-β inhibitor, rather than apoptosis, a CCK-8 survival rate assay kit (Dojindo, Japan) was used and an absorbance was measured at a wavelength of 450 nm by using a spectrophotometer (Labsystems, U.S.A.) to count the number of cells. The shown values are average values obtained from three independent experiments.

TGF-β = TGF-β inhibitor screening, 3TP-pGL2 luciferase reporter in transformed HEK 293 cells; format: cell-based, human; conditions: compound added 2 h before 0.5 ng/ml TGF-β, FIGS. 3a, 3b
Source text: In order to screen an agent for inhibiting TGF-β cells stably transformed by luciferase-expressing plasmids were used to measure an effect on TGF-β activity.
A plasmid with a Smad binding site and a […] activator inhibitor (PAI) promoter, obtained from professor Carlos Arteaga at the University of Vanderbilt in US, was inserted into pGL2-Null reporter plasmid (Promega, U.S.A.). […] The plasmid was used to transform human embryonic kidney (HEK) 293 cells according to the manufacturer s specification, using Lipofectamine 2000 (Invitrogen, Calsbad, CA, USA), thereby constructing a system for screening an effect on TGF-β activity by measuring luciferase activity. The activity of luciferase was measured using a Dual Luciferase Assay kit (Promega, Medison, WI, USA). […]
The HEK 293 cells transformed were inoculated into a 96-well plate at 20,000 cells/ well in triplicates and then incubated under the condition as described above for 24 hours. Then, TGF-β was added thereto at concentrations of 0.5, 1, and 5 ng/ml and after 15-hour incubation, luciferase activity was measured. […]
By using the screening system as described above, a TGF-β inhibition effect was tested on 8,000 compounds in a compound library. […] Then, the luciferase activity was measured as described above. […]

H1299 cells = assay: Apoptosis alone or with radiation, Annexin-PI staining and FACS assay; format: cell-based; conditions: 48 h; for effect on apoptosis together with radiation compared to compound or radiation alone: H1299, 6 Gy
Procedure: H1299, a cell strain of lung cancer, which is generally treated by radiation therapy, was treated with radiation in combination with compound I or II, and apoptosis thereof was measured. Compound I or II was added to H1299 cells inoculated to a 6 cm cell incubation plate as described in Example 3, and two hours later, 6 Gy of radioactive rays were irradiated thereto, and 48 hours later, apoptosis was measured by Annexin-PI staining and FACS assay. […] Table 2 [Table 2]

U87-MG = assay: Apoptosis of brain cancer cells alone or with doxorubicin, CCK-8 viability assay; format: cell-based; conditions: 48 h; for apoptosis effect together with doxorubicin: compound added 2 h before doxorubicin 0.05 µM; for apoptosis: compound alone at 5 µM or more, FIGS. 9b, 9d
Procedure: (§1) TGF-βis known to have contrasting effects related to a tumor. That is, at an initial stage, TGF-β suppresses tumor growth, but at a latter stage, promotes metastasis or infiltration of a tumor. Thus, apoptosis of tumor cell lines caused by compound I and II, and apoptosis of tumor cell lines caused by compound I or II in combination with doxorubicin, an anti-cancer agent, were measured. […] The tumor cells were treated with compound I or II at the concentrations shown in FIG. 9, and 2 hours later, doxorubicin was added thereto. Then, the cells were incubated for 48 hours under the conditions described above and then, quantified using a CCK-8 viability assay kit (Dojindo, Japan).

H1299 = assay: Apoptosis of lung cancer cells alone or with doxorubicin, CCK-8 viability assay; format: cell-based; conditions: 48 h; for apoptosis effect together with doxorubicin: H1299, compound added 2 h before doxorubicin 0.05 µM; for apoptosis: H1299, compound alone at 5 µM or more, FIGS. 9a, 9c
Procedure: as §1

[1] = H1299, compound 5 µM + radiation (6 Gy) 2 h later

Structure (SMILES) | IL-1 mRNA expression (RAW 264.7 cell) | expression of TNF-α (RAW 264.7 cell) | iNOS mRNA expression (RAW 264.7 cell) | cell count (cytotoxicity) (HEK 293 cells) | TGF-β activity (luciferase activity) (TGF-β) | effect on apoptosis together with radiation compared to compound or radiation alone (H1299 cells) | Apoptosis (%, average±SEM) (H1299 cells; [1]) [%] | Apoptosis (%, average±SEM) (H1299 cells; H1299, compound 5 µM alone) [%] | apoptosis effect together with doxorubicin (U87-MG) | apoptosis (U87-MG) | apoptosis effect together with doxorubicin (H1299) | apoptosis (H1299) | IL-6 mRNA expression (RAW 264.7 cell)
Cc1cn2c(nc3c2c(=O)n(Cc2ccccc2Cl)c(=O)n3C)[nH]1 [compound I, 3-(2-chlorobenzyl)-1,7-dimethyl-1H-imidazo[2,1-f]purine-2,4(3H,8H)-dion] | significantly inhibited | slightly reduced | significantly inhibited | no significant decrease in the cell count | inhibit TGF-β activity in a concentration-dependent way | synergistic effect on apoptosis | 73.42±1.84 | 20.86±1.03 | additive or synergistic apoptosis effects | did not occur | additive or synergistic apoptosis effects | apoptosis occurred | 
Cc1[nH]c2nc3c(c(=O)n(Cc4c(F)cccc4Cl)c(=O)n3C)n2c1C [compound II, 3-(2-chloro-6-fluorobenzyl)-1,6,7-trimethyl-1H-imidazo[2,1-f]purine-2,4(3H,8H)-dion] |  | slightly reduced | distinctively reduced | no significant decrease in the cell count | inhibit TGF-β activity in a concentration-dependent way | synergistic effect on apoptosis | 55.91±5.58 | 14.79±0.78 | additive or synergistic apoptosis effects | did not occur | additive or synergistic apoptosis effects | apoptosis occurred | distinctively reduced
